Entries after “also recorded” stand apart in the source; their conditions may differ.
What follows are molecules tested against T1, mushroom tyrosinase (Agaricus bisporus, UniProt C7FF04) (assay: not given). Conditions: Lineweaver-Burk plot, L-DOPA substrate.
T1 sequence (C7FF04 1-392): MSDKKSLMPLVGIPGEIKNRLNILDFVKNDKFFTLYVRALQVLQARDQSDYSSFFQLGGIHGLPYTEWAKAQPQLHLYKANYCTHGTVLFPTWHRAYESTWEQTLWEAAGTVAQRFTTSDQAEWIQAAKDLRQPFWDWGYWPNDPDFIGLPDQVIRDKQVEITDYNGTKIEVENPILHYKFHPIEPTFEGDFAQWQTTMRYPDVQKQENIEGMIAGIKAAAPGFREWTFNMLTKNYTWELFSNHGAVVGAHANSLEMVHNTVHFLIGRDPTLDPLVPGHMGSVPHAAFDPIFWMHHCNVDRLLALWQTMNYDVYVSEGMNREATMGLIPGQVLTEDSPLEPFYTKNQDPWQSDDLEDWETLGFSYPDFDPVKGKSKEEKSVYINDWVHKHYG

Question: How did the inhibition type turn out when `COc1cc(/C=C2\CCc3cc(O)ccc3C2=O)cc(OC)c1OC` [C2, (E) - 6-hydroxy - 2-(3,4,5-trimethoxy-benzylidene)-3,4-dihydronaphthalen-1(2H)-one] was run?
Answer: Its inhibition type is “competitively; also recorded: competitive tyrosinase inhibitor”.

Each molecule was assayed against T1, mushroom tyrosinase (assay: biochemical). Conditions: not given.

Question: With `CCOc1cc(/C=C2\CCc3cc(O)ccc3C2=O)ccc1O` [C4, (E)-2-(3-ethoxy-4-hydroxybenzylidene)-6-hydroxy-3,4-dihydronaphthalen-1(2H)-one] as the molecule, how does the IC50 read?
Answer: The IC50 was 21.4 ± 3.1 µM.

Question: `O=C1/C(=C/c2ccc(O)cc2)CCc2cc(O)ccc21` [C5, (E)-6-hydroxy-2-(4-hydroxybenzylidene)-3,4-dihydronaphthalen-1(2H)-one] was tested. Which IC50 did it give?
Answer: Its IC50 is 48.6 ± 2.9 µM.

Question: How did the IC50 turn out when `COc1ccccc1/C=C1\CCc2cc(O)ccc2C1=O` [C3, (E)-6-hydroxy-2-(2-methoxybenzylidene)-3,4-dihydronaphthalen-1(2H)-one] was run?
Answer: The IC50 was 11.1 ± 2.5 µM.

Question: For `COc1cc(/C=C2\CCc3cc(O)ccc3C2=O)cc(OC)c1OC` [C2, (E) - 6-hydroxy - 2-(3,4,5-trimethoxy-benzylidene)-3,4-dihydronaphthalen-1(2H)-one], which IC50 is on record?
Answer: The IC50 was 8.8 ± 1.8 µM.

Question: For `COc1ccc(/C=C2\CCc3cc(O)ccc3C2=O)cc1` [C1, (E)-6-hydroxy-2-(4-methoxybenzylidene)-3,4-dihydronaphthalen-1(2H)-one], which IC50 is on record?
Answer: The IC50 was 17.6 ± 1.1 µM.

Question: For `COc1ccc(/C=C2\CCc3cc(O)ccc3C2=O)cc1OC` [C6, (E)-2-(3,4-dimethoxybenzylidene)-6-hydroxy-3,4-dihydronaphthalen-1(2H)-one], which IC50 is on record?
Answer: Its IC50 is 17.6 ± 2.4 µM.

Question: With `COc1cc(/C=C2\CCc3cc(O)ccc3C2=O)cc(OC)c1O` [C9, (E)-6-hydroxy-2-(4-hydroxy-3,5-dimethoxy-benzylidene)-3,4-dihydronaphthalen-1(2H)-one] as the molecule, how does the IC50 read?
Answer: Its IC50 is greater than 50 µM.

Question: For `O=C1/C(=C/c2ccc(Cl)cc2)CCc2cc(O)ccc21` [C7, (E)-2-(4-chlorobenzylidene)-6-hydroxy-3,4-dihydronaphthalen-1(2H)-one], which IC50 is on record?
Answer: The IC50 was 22.4 ± 3.1 µM.
